What was measured:
[1] = system: MCF-7 breast cancer cells; test: WST-1 based proliferation assay, MCF-7; assay type: cell-based, human; settings: MCF-7 (ER+, PIK3CA mutation); WST-1 absorbance 450 nm, days 1-5; compound A′ 50/500 nM, compound B 1600/800 Bq/ml
Experimental: (§1) The effects of PI3K inhibitor compound A′ and compound B in MCF-7 and 4T1 breast cancer cells and PC-3 and LNCaP prostate cancer cells were investigated in vitro as single agent and in combination. The effects were studied by measuring cell proliferation and apoptosis. Compound B and the reference inhibitor doxorubicin were added at day 0. The PI3K inhibitors were added at day −1 (24 hours before addition of Alpharadin) and at day 4. The following two concentrations of the inhibitors and two concentrations of radium 223 in 4 replicates were tested:
(§2) The effects on cell proliferation were studied using a WST-1 based proliferation assay and the effects on apoptosis were studied in parallel plates by measuring caspase 3/7 activity. The measurements were performed at 4 different time points, days 1, 2, 3 and 5. Caspase activity was normalized to the cell number obtained with the WST-1 assay in parallel plates.
(§3) (A) The results are shown as Absorbance (450 nm) measured in the WST-1 proliferation assay (MEAN). (B) The results are shown as Caspase 3/7/WST-1 values (MEAN). […] (B) The effects of PI3K inhibitor compound A′ and Radium 223 on MCF-7 cell caspase 3/7 activity at days 2. The results are shown as Caspase 3/7/WST-1 values (MEAN+SEM).

[2] = system: 4T1 breast cancer cells; test: WST-1 based proliferation assay, 4T1; assay type: cell-based, mouse
Experimental: as §1, §2
(§4) The results are shown as Absorbance (450 nm) measured in the WST-1 proliferation assay (MEAN).

[3] = system: PC-3 prostate cancer cells; test: WST-1 based proliferation assay, PC-3; assay type: cell-based, human; settings: PC3 (AR-negative, PTEN loss); WST-1 absorbance 450 nm, days 1-5; compound A′ 50/500 nM, compound B 1600/800 Bq/ml
Experimental: as §1, §2, §4

[4] = system: LNCaP prostate cancer cells; test: WST-1 based proliferation assay, LNCaP; assay type: cell-based, human
Experimental: as §1, §2
(A) The results are shown as Absorbance (450 nm) measured in the WST-1 proliferation assay (MEAN).

[5] = system: MCF-7 breast cancer cells; test: Apoptosis by caspase 3/7 activity, MCF-7; assay type: cell-based, human; settings: day 2, caspase activity normalized to WST-1 cell number
Experimental: as §1, §2, §3

[6] = system: CRPC (Castration Resistant Prostate Cancer) and bone metastases; settings: cited from earlier work
[7] = single doses up to 250 kBq per kg body weight; cited from earlier work
[8] = phase 1 and 2 studies; patients with bone metastases; cited from earlier work
[9] = system: CRPC and bone metastases; settings: Phase 2 studies; cited from earlier work
[10] = WST-1 absorbance 450 nm, days 1-5, compound A′ 100/1000 nM, compound B 1600/800 Bq/ml
[11] = ALSYMPCA trial, patients with CRPC and bone metastases
[12] = LNCaP (AR-positive, PTEN loss), WST-1 absorbance 450 nm, days 1-5

SMILES	inhibition of tumor cell proliferation [1]	inhibition of tumor cell proliferation [2, 10]	inhibition of tumor cell proliferation ([2]; higher dose)	inhibition of tumor cell proliferation [3]	inhibition of tumor cell proliferation ([4]; LNCaP, high dose (1600 Bq/mL))	apoptosis / tumor cell death induction (caspase 3/7 / WST-1) [5]	median survival longer than placebo [6, 11]	reduction in risk of death compared with placebo [6, 11]	time to first skeletal-related event ([6]; ALSYMPCA trial, versus placebo)	median overall survival ([6]; Phase III clinical trials)	cases of grade 3 neutropenia [7]	observed adverse reactions [7]	safety profile [8]	pain and disease-related biomarkers (bone ALP, PSA) [9]	inhibition of tumor cell proliferation [4, 12]	inhibition of tumor cell proliferation ([2]; lower (100 nM) dose)
[Cl][223Ra][Cl] [compound B, radium-223 dichloride]	only slight inhibition of tumor cell proliferation	only moderate inhibition of tumor cell proliferation	strong anti-proliferative effects	moderate inhibition of tumor cell proliferation	effective	could not induce tumor cell death	2.8 months	30.5%	significantly prolonged	Significant increase in median overall survival	⅕	diarrhea and reversible myelosuppression	favorable safety profile, with minimal myelotoxicity	reduces pain, improves disease-related biomarkers	–	–
COc1cccc2c1C(=O)c1c(O)c3c(c(O)c1C2=O)C[C@@](O)(C(=O)CO)C[C@@H]3O[C@H]1C[C@H](N)[C@H](O)[C@H](C)O1 [doxorubicin]	inhibited proliferation	inhibited proliferation	–	inhibited proliferation	–	–	–	–	–	–	–	–	–	–	inhibited proliferation	–
COc1c(OCCCN2CCOCC2)ccc2c1N=C(NC(=O)c1cnc(N)nc1)N1CCN=C21.Cl.Cl [compound A′, 2-amino-N-[7-methoxy-8-(3-morpholin-4-ylpropoxy)-2,3-dihydroimidazo[1,2-c]quinazolin-5-yl]pyrimidine-5-carboxamide dihydrochloride]	potent anti-proliferative activity	–	–	better anti-proliferactive activity	–	only at high dose can induce apoptosis	–	–	–	–	–	–	–	–	strong anti-proliferative effects	only moderate inhibition of tumor cell proliferation
